# Measured values reported in patent publication US11045457B2, “Piperidinyl-3-(aryloxy)propanamides and propanoates” (priority 2018, dated 2021).
# How the values were obtained:
# SSTR4 [1] = molecular target: T1, SSTR4 (Homo sapiens (Human), UniProt P31391); assay: Inhibition of forskolin stimulated cAMP in CHO-K1 cells overexpressing SSTR4; type: cell-based; settings: for EC50: read-out: SSTR4 Activity pEC50 (converted)
# In short: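 Read-out is a HTRF LANCE Ultra cAMP competition using Eu-labelled streptavidin and biotin-cAMP, incubated 60 min at room temperature. It followed a 30 min room-temperature exposure of Kreb's Ringer-washed cells to compound plus forskolin. Potency is expressed as pEC50.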
# SSTR4 [2] = molecular target: T1, SSTR4; assay: SSTR4 I-125 somatostatin competition binding assay (membranes from CHO-K1 cells overexpressing SSTR4); settings: competition with I-125 labeled somatostatin; for IC50: read-out: SSTR4 Binding pIC50 (converted)
# SSTR1 = SSTR1 (Homo sapiens (Human), UniProt P30872); assay: SSTR1 I-125 somatostatin competition binding assay for selectivity versus SSTR4 (membranes from CHO-K1 cells overexpressing SSTR1); settings: for SSTR1 Binding pIC50: competition with I-125 labeled somatostatin, CHO-K1 SSTR1 membranes;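 for all read-outs here: Filter-based radioligand binding, bound label counted by scintillation after 60 min incubation at room temperature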
# SSTR1, sequence (P30872 whole entry): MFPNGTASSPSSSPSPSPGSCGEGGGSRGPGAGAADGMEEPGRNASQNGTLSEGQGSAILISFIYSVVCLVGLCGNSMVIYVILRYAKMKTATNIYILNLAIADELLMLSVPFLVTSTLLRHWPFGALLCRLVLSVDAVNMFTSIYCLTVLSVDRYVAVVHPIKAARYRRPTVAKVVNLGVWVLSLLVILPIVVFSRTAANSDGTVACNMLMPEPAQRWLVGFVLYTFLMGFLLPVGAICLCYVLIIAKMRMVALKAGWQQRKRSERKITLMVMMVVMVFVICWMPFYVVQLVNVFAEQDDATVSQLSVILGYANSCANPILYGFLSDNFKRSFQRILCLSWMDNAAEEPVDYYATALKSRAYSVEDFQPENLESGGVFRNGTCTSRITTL
# Experimental: Membranes from CHO-K1 cells overexpressing SSTR1 are purchased from Perkin Elmer (catalog number ES-520-M400UA). […] Then 10 μg of SSTR1 membranes in 50 μL assay buffer are added per well. The plate is incubated for 60 minutes at room temperature. […] The contents of the assay plate are transferred to filters with a TomTech harvester and washed 5 times with 20 mM HEPES, 100 mM NaCl. […] The scintillator sheets are melted to the filters using a heat block. The filters are then read in a MicroBeta scintillation counter. Binding Ki curves are generated using Activity Base for Screening Data Management and the results are reported as pIC50.
# T1 sequence (P31391 whole entry): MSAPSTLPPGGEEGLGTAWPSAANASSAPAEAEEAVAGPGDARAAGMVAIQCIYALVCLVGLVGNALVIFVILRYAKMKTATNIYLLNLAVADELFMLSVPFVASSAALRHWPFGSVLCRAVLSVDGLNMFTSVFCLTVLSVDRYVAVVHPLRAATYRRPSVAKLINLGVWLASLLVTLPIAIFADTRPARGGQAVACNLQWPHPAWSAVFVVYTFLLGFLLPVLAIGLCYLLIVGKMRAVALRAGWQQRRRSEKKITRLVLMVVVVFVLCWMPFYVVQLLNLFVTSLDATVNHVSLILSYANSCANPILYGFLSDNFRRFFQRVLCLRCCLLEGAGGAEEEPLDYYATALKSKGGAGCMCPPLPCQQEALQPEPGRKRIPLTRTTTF
Compound,EC50 (SSTR4 [1]),IC50 (SSTR4 [2]),IC50 (SSTR1),SSTR4 Activity pEC50 (SSTR4 [1]),SSTR4 Binding pIC50 (SSTR4 [2]),SSTR1 Binding pIC50 (SSTR1)
"CN1CC[C@@H](NC(=O)C(C)(C)COc2ncccc2C(F)(F)F)[C@H](c2cnn(C(F)F)c2)C1 (racemic) [Example 125, trans-N-(3-(1-(difluoromethyl)-1H-pyrazol-4-yl)-1-methylpiperidin-4-yl)-2,2-dimethyl-3-((3-(trifluoromethyl)pyridin-2-yl)oxy)propanamide]",1.58 nM,50.1 nM,794 nM,–,–,–
"CN1CCC(NC(=O)C(C)(C)COc2ncccc2C2CC2)CC1 [Example 47, 3-((3-cyclopropylpyridin-2-yl)oxy)-2,2-dimethyl-N-(1-methylpiperidin-4-yl)propanamide]",–,–,–,8.1,7.1,4.8
"C[C@@H]1C[C@H](NC(=O)C(C)(C)COc2ncccc2OC(F)(F)F)CCN1C [Example 179, N-((2R,4R)-1,2-dimethylpiperidin-4-yl)-2,2-dimethyl-3-((3-(trifluoromethoxy)pyridin-2-yl)oxy)propanamide]",–,–,–,8.1,7.4,4.8
"CN1CC[C@@H](NC(=O)C(C)(C)COc2ccccc2C2CC2)C1 [Example 71, (R)-3-(2-cyclopropylphenoxy)-2,2,-dimethyl-N-(1-methylpyrrolidin-3-yl)propanamide]",–,–,–,8.3,7.3,5.3
"CC(C)(COc1ccccc1Cl)C(=O)NC1CCNCC1 [Example 213, 3-(2-chlorophenoxy)-2,2-dimethyl-N-(piperidin-4-yl)propanamide]",–,–,–,8.7,7.6,4.6
"CN1CC[C@H](NC(=O)C(C)(C)COc2ncccc2OC(F)(F)F)[C@@H](F)C1 [Example 124, N-((3S,4S)-3-fluoro-1-methylpiperidin-4-yl)-2,2-dimethyl-3-((3-(trifluoromethoxy)pyridin-2-yl)oxy)propanamide]",–,–,–,7.6,7.4,5.1
"CN1CC[C@H](NC(=O)C(C)(C)COc2ncccc2C(F)(F)F)[C@H](c2ccccc2)C1 (relative stereo) [Example 163, 2,2-dimethyl-N-(cis-1-methyl-3-phenylpiperidin-4-yl)-3-((3-(trifluoromethyl)pyridin-2-yl)oxy)propanamide]",–,–,–,7.3,6.1,5.2
"C[C@@H]1CN(C)CC[C@H]1NC(=O)C(C)(C)COc1ccccc1Cl (relative stereo) [Example 186, trans-3-(2-chlorophenoxy)-N-(1,3-dimethylpiperidin-4-yl)-2,2-dimethylpropanamide]",–,–,–,8.1,7.4,5.5
"C[C@@H]1CN(C)C[C@H]1NC(=O)C(C)(C)COc1ncccc1C(F)(F)F (racemic) [Example 165, N-(trans-1,4-dimethylpyrrolidin-3-yl)-2,2-dimethyl-3-((3-(trifluoromethyl)pyridin-2-yl)oxy)propanamide]",31.6 nM,158 nM,5010 nM,–,–,–
"Cc1c([C@@H]2CN(C)C[C@H]2NC(=O)C(C)(C)COc2ncccc2C(F)(F)F)cnn1C (relative stereo) [Example 28, trans-N-(4-(1,5-dimethyl-1H-pyrazol-4-yl)-1-methylpyrrolidin-3-yl)-2,2-dimethyl-3-((3-(trifluoromethyl)pyridin-2-yl)oxy)propanamide]",–,–,–,8.8,7.7,6.8
"CN1C[C@@H](NC(=O)C(C)(C)COc2ncccc2C(F)(F)F)[C@H](c2cnn(C)c2)C1 (relative stereo) [Example 19, trans-2,2-dimethyl-N-(1-methyl-4-(1-methyl-1H-pyrazol-4-yl)pyrrolidin-3-yl)-3-((3-(trifluoromethyl)pyridin-2-yl)oxy)propanamide]",–,–,–,7.7,6.8,6.1
"Cc1cccnc1OCC(C)(C)C(=O)N[C@@H]1CN(C)C[C@H]1c1cn(C)nc1C (relative stereo) [Example 23, trans-N-(4-(1,3-dimethyl-1H-pyrazol-4-yl)-1-methylpyrrolidin-3-yl)-2,2-dimethyl-3-((3-methylpyridin-2-yl)oxy)propanamide]",–,–,–,8.0,6.6,5.8
"CN1CC[C@@H](NC(=O)C(C)(C)COc2ccccc2Br)C1 [Example 69, (R)-3-(2-bromophenoxy)-2,2-dimethyl-N-(1-methylpyrrolidin-3-yl)propanamide]",–,–,–,8.4,7.2,5.2
"CN1C[C@@H](NC(=O)C(C)(C)COc2ncccc2C2CC2)[C@H](c2ccc(C(F)(F)F)nc2)C1 (racemic) [Example 58, trans-3-((3-cyclopropylpyridin-2-yl)oxy)-2,2-dimethyl-N-(1-methyl-4-(6-(trifluoromethyl)pyridin-3-yl)pyrrolidin-3-yl)propanamide]",20 nM,200 nM,126 nM,–,–,–
"Cc1ncccc1[C@@H]1CNCC[C@H]1N(C)C(=O)C(C)(C)COc1ncccc1C(F)(F)F (racemic) [Example 172, N,2,2-trimethyl-N-(trans-3-(2-methylpyridin-3-yl)piperidin-4-yl)-3-((3-(trifluoromethyl)pyridin-2-yl)oxy)propanamide]",12.6 nM,2000 nM,39800 nM,–,–,–
"C[C@@H]1C[C@H](NC(=O)C(F)(F)COc2ncccc2C2CC2)CCN1 [Example 211, 3-((3-cyclopropylpyridin-2-yl)oxy)-2,2-difluoro-N-((2R,4R)-2-methylpiperidin-4-yl)propanamide]",–,–,–,8.9,7.2,4.8
"CN1CC[C@@H](NC(=O)C(C)(C)COc2ccccc2C(F)(F)F)C1 [Example 65, (R)-2,2-dimethyl-N-(1-methylpyrrolidin-3-yl)-3-(2-(trifluoromethyl)phenoxy)propanamide]",–,–,–,7.9,7.0,5.1
"Cc1cccnc1OCC(C)(C)C(=O)N[C@H]1CCN(C)C[C@@H]1C [Example 143, N-((3S,4S)-1,3-dimethylpiperidin-4-yl)-2,2-dimethyl-3-((3-methylpyridin-2-yl)oxy)propanamide]",–,–,–,7.9,6.9,4.8
"CN1CCC(NC(=O)C(C)(C)COc2ccccc2Br)CC1 [Example 67, 3-(2-bromophenoxy)-2,2-dimethyl-N-(1-methylpiperidin-4-yl)propanamide]",–,–,–,8.1,7.4,5.1
"CN1CCC(NC(=O)C(C)(C)COc2ccccc2Cl)CC1 [Example 66, 3-(2-chlorophenoxy)-2,2-dimethyl-N-(1-methylpiperidin-4-yl)propanamide]",–,–,–,7.7,7.0,4.9
"CN1CC[C@H](NC(=O)C(C)(C)COc2ccccc2Cl)[C@@H](F)C1 [Example 188, 3-(2-chlorophenoxy)-N-((3S,4S)-3-fluoro-1-methylpiperidin-4-yl)-2,2-dimethylpropanamide]",–,–,–,8.2,7.6,5.0
"Cc1c([C@@H]2CN(C)C[C@H]2NC(=O)C(C)(C)COc2ncccc2OC(F)(F)F)cnn1C (relative stereo) [Example 30, trans-N-(4-(1,5-dimethyl-1H-pyrazol-4-yl)-1-methylpyrrolidin-3-yl)-2,2-dimethyl-3-((3-(trifluoromethoxy)pyridin-2-yl)oxy)propanamide]",–,–,–,9.0,7.8,6.9
"CN(C(=O)C(C)(C)COc1ncccc1C(F)(F)F)[C@@H]1CCNC[C@H]1c1ccccc1 (racemic) [Example 162, trans-N,2,2-trimethyl-N-(3-phenylpiperidin-4-yl)-3-((3-(trifluoromethyl)pyridin-2-yl)oxy)propanamide]",126 nM,1580 nM,50100 nM,–,–,–
"Cc1nn(C)cc1[C@@H]1CN(C)C[C@H]1NC(=O)C(C)(C)COc1ncccc1C1CC1 (relative stereo) [Example 24, trans-3-((3-cyclopropylpyridin-2-yl)oxy)-N-(4-(1,3-dimethyl-1H-pyrazol-4-yl)-1-methylpyrrolidin-3-yl)-2,2-dimethylpropanamide]",–,–,–,8.3,7.0,6.4
"Cc1c([C@@H]2CN(C)C[C@H]2NC(=O)C(C)(C)COc2ncccc2C2CC2)cnn1C (relative stereo) [Example 27, trans-3-((3-cyclopropylpyridin-2-yl)oxy)-N-(4-(1,5-dimethyl-1H-pyrazol-4-yl)-1-methylpyrrolidin-3-yl)-2,2-dimethylpropanamide]",–,–,–,8.9,7.6,6.9
"CC[C@@H]1CN(C)CC[C@H]1NC(=O)C(C)(C)COc1ncc(C)cc1C (racemic) [Example 128, trans-3-((3,5-dimethylpyridin-2-yl)oxy)-N-(3-ethyl-1-methylpiperidin-4-yl)-2,2-dimethylpropanamide]",15.8 nM,63.1 nM,3160 nM,–,–,–
"C[C@H]1C[C@@H](NC(=O)C(C)(C)COc2ncccc2OC(F)(F)F)CCN1C [Example 152, N-((2S,4S)-1,2-dimethylpiperidin-4-yl)-2,2-dimethyl-3-((3-(trifluoromethoxy)pyridin-2-yl)oxy)propanamide]",–,–,–,7.0,6.6,4.6
